# Test: Colour measurement (yellowing) of liquid laundry compositions comprising DHA
# Assay type: physicochemical
# Details: added to laundry liquid comprising DHA salt
smiles,measurement,value
"O=S([O-])[O-].[K+].[K+] [sulphite, Potassium Sulfite]",effect on yellowing,reduces yellowing

# — patent US20240110130A1, “COMPOSITION” (Conopco, Inc., d/b/a UNILEVER, priority 2021, published 2024)
